Experimental findings from US20190167647A1, “PHARMACEUTICAL COMPOSITION FOR STROKE TREATMENT BASED ON AMPK INHIBITION” (INDUSTRY ACADEMY COOPERATION FOUNDATION OF SEJONG UNIVERSITY, priority 2016, published 2019) are described below.

In general, remaining activity refers to the activity still measured, relative to the control.

The target of series [1] is T1, recombinant AMPK (α2/β1/γ1) (Homo sapiens, UniProt P54646).
T1 construct: purchased CycLex, Japan
The series can be described thus: AMPK enzymatic activity assay (CycLex kit). The series is classed as biochemical. The method, then:
More particularly, AMPK enzymatic activity was measured by an AMPK activity assay kit (CycLex, Japan) and recombinant AMPK (α2/β1/γ1 CycLex, Japan).

For series [2], the system named is male Sprague-Dawley (SD) rat. The series can be described thus: Permanent middle cerebral artery occlusion (MCAO) stroke model. Format: in vivo. The method, then: More particularly, a permanent middle cerebral artery (MCA) occlusion model was prepared using a male Sprague-Dawley (SD) rat aged 8 to 9 weeks. At time points of 30 minutes before MCAO and 10 minutes after the same, cerebral blood flow (CBF) was measured by a laser-doppler flowmeter and the measured results are shown in Table 3 below. Then, 15 minutes after middle cerebral artery occlusion (MCAO), the compound #28, which is finally selected as an AMPK inhibitor (75 ng/3 μl), or a vehicle (10% DMSO) was provided to an area of 0.8 mm on a back and 1.2 mm on a lateral of bregma at a depth of 3.8 mm through intra-cerebroventricular injection. Thereafter, a degree of lack of movement (‘motor deficit’) was evaluated in the rat, in particular, standards for evaluation are classified as follows (Longa et al., 1989): no deficiency (normal); failure of extending the front foots when vertically stopping (mild); rotation on the opposite side (moderate); and rotation loss (loss of circling) or loss of reflex motion (serious deficit). After induction of ischemia in the rat model, the brain was obtained at the time of lapse of 24 hours, followed by determining a level of cerebral infraction by staining the brain with 2% 2,3,5-triphenyl tetrazolium chloride (TTC).

Series [3] relates to male Sprague-Dawley (SD) rats. The series can be described thus: Acute toxicity test. Format: in vivo. Further details: RBC: unit not given here. Conditions: 75 μg/kg intra-cerebroventricular. The source says: This procedure was repeated 4 times.
Further, the rat was sacrificed, and specific organs such as the liver, spleen and kidney were extracted, followed by measurement of weights thereof (FIG. 7).

The next series deals with neuronal cells. The series can be described thus: H2O2-mediated intracellular zinc increase, FluoZin-3 staining. Format: cell-based. Conditions: FluoZin-3, confocal microscopy.

T1 sequence (P54646 whole entry): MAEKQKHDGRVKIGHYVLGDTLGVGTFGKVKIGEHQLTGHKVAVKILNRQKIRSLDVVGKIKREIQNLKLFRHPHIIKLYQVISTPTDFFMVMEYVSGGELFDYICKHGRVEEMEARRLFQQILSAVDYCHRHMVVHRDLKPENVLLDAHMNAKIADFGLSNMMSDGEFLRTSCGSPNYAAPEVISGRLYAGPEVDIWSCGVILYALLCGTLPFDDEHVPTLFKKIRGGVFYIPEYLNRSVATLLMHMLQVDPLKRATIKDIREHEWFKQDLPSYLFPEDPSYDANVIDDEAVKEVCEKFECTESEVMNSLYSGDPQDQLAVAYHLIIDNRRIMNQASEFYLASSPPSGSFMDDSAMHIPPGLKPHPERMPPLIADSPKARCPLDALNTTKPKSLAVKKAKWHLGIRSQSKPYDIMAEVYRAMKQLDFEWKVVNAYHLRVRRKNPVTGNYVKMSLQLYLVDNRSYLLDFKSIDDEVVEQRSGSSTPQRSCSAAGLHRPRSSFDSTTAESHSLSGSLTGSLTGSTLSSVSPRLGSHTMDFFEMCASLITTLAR
T1 sequence (Q9Y478 whole entry partner): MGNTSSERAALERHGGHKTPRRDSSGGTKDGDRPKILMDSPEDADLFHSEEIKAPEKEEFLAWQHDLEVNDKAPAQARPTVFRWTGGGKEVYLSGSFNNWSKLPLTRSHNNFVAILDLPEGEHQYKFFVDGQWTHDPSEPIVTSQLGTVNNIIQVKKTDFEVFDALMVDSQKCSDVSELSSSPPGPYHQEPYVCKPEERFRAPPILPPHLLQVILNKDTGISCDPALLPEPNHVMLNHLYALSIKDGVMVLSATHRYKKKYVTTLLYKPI
T1 sequence (P54619 whole entry partner): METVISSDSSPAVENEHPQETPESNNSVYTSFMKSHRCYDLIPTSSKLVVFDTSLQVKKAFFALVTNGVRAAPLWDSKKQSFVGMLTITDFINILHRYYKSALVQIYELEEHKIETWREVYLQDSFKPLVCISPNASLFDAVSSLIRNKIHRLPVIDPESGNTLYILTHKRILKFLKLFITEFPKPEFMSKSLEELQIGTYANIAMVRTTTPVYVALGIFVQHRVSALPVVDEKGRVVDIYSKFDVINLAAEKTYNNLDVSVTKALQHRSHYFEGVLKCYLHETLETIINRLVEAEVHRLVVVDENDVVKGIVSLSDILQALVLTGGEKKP

`O=C1N=C(Nc2cccc(O)c2)S/C1=C\c1c[nH]c2ccccc12` [compound 28, (Z)-5-((1H-indol-3-yl)methylene)-2-((3-hydroxyphenyl)amino)thiazol-4(5H)-one]: in series [1], the remaining activity at 10 µM was 3.97%. Moreover, the “brain damage due to permanent MCAO” value in series [2] (75 ng/3 μl intra-cerebroventricular 15 min after MCAO, TTC staining at 24 hours) was “significantly inhibit brain damage”. Also, the “Weight reduction” value in series [2] (MCAO rat, 75 ng/3 μl intra-cerebroventricular) came out at 43.8 ± 6.1 g. The “toxicity by blood indicators compared to control group” value in series [3] is “noticeable toxicity was not observed”. In addition, the dead rats result in series [3] (24 hours) is “dead rats were not found”. In series [3] (n = 4, blood), this compound returned an ALT of 54.5 ± 8.2 U/L, an AST of 142.3 ± 50.7 U/L, a BUN of 17.6 ± 1.8 mg/dL and a CREA of 0.5 ± 0.0 mg/dL. Also, in series [3] (n = 4, blood), the GLU stood at 174.6 ± 18.0 mg/dL, the RBC is given as 7.4 ± 0.5 ×10^3 and the WBCB is 11.6 ± 1.9 ×10^3 cell/uL. Besides, in the series on neuronal cells, the “zinc in the neuronal cells during H2O2 toxicity” value was “zinc reduction in the neuronal cells”.
